In ChEMBL document CHEMBL1201862, “PubChem BioAssay data set” (2004):
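All cell lines were grown in 96-well plates and treated with compound for 48 hours. Abbreviation: GI50, concentration required for 50% inhibition of growth.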 Calls of active or inactive are those of the source. Rule as the data show it: active = GI50 up to about 1.1 µM and inactive = higher.

Assays:
Assay in all cases: NCI-60 cell line screen, 48 h
SK-MEL-2 = test system: SK-MEL-2
Malme-3M = test system: Malme-3M
786-0 = test system: 786-0
OVCAR-3 = test system: OVCAR-3
U-251 = test system: U-251
T47D = test system: T47D
NCI-H226 = test system: NCI-H226
NCI-H23 = test system: NCI-H23
OVCAR-4 = test system: OVCAR-4
SK-MEL-5 = test system: SK-MEL-5
CAKI-1 = test system: CAKI-1
MOLT-4 = test system: MOLT-4
SNB-19 = test system: SNB-19
SNB-75 = test system: SNB-75
RPMI-8226 = test system: RPMI-8226
HCT-15 = test system: HCT-15
HCC 2998 = test system: HCC 2998
NCI-H522 = test system: NCI-H522
DU-145 = test system: DU-145
SF-268 = test system: SF-268
OVCAR-8 = test system: OVCAR-8
UACC-62 = test system: UACC-62
SF-539 = test system: SF-539
SK-MEL-28 = test system: SK-MEL-28
A498 = test system: A498
ACHN = test system: ACHN
NCI-H460 = test system: NCI-H460
TK-10 = test system: TK-10
IGROV-1 = test system: IGROV-1
SN12C = test system: SN12C
MCF7 = test system: MCF7
M14 = test system: M14
SF-295 = test system: SF-295
BT-549 = test system: BT-549
K562 = test system: K562
HOP-62 = test system: HOP-62
EKVX = test system: EKVX
MDA-MB-231 = test system: MDA-MB-231
UACC-257 = test system: UACC-257
MDA-N = test system: MDA-N
HT-29 = test system: HT-29
SW-620 = test system: SW-620
KM12 = test system: KM12
HOP-92 = test system: HOP-92
SK-OV-3 = test system: SK-OV-3
COLO 205 = test system: COLO 205
RXF 393 = test system: RXF 393
NCI/ADR-RES = test system: NCI/ADR-RES
MDA-MB-435 = test system: MDA-MB-435
UO-31 = test system: UO-31
PC-3 = test system: PC-3
A549 = test system: A549
Hs-578T = test system: Hs-578T
OVCAR-5 = test system: OVCAR-5
LOX IMVI = test system: LOX IMVI
HL-60 = test system: HL-60
HCT-116 = test system: HCT-116

For `CCC(C)C(C(=O)N/N=C1/SCC(=O)N1C)C(=O)N/N=C1/SCC(=O)N1C` (configuration not stated), the GI50 (SK-MEL-2) was > 100 µM (inactive), the GI50 (Malme-3M) was > 100 µM (inactive) and the GI50 (786-0) was > 100 µM (inactive). For the same compound, the GI50 (OVCAR-3) was > 100 µM (inactive), the GI50 (U-251) was > 100 µM (inactive) and the GI50 (T47D) was > 100 µM (inactive). The GI50 (NCI-H226) was > 100 µM (inactive), the GI50 (NCI-H23) was > 100 µM (inactive) and the GI50 (OVCAR-4) was > 100 µM (inactive). The GI50 (SK-MEL-5) was > 100 µM (inactive), the GI50 (CAKI-1) was > 100 µM (inactive) and the GI50 (MOLT-4) was > 100 µM (inactive). For the same compound, the GI50 (SNB-19) was > 100 µM (inactive), the GI50 (SNB-75) was > 100 µM (inactive) and the GI50 (RPMI-8226) was > 100 µM (inactive). For the same compound, the GI50 (HCT-15) was > 100 µM, the GI50 (HCC 2998) was > 100 µM (inactive) and the GI50 (NCI-H522) was > 100 µM (inactive). The GI50 (DU-145) was > 100 µM (inactive), the GI50 (SF-268) was > 100 µM (inactive) and the GI50 (OVCAR-8) was > 100 µM (inactive). For the same compound, the GI50 (UACC-62) was > 100 µM (inactive), the GI50 (SF-539) was > 100 µM (inactive) and the GI50 (SK-MEL-28) was > 100 µM (inactive). The GI50 (A498) was > 100 µM (inactive), the GI50 (ACHN) was > 100 µM (inactive) and the GI50 (NCI-H460) was > 100 µM (inactive). The GI50 (TK-10) was > 100 µM (inactive), the GI50 (IGROV-1) was > 100 µM (inactive) and the GI50 (SN12C) was > 100 µM (inactive). For the same compound, the GI50 (MCF7) was > 100 µM (inactive), the GI50 (M14) was > 100 µM (inactive) and the GI50 (SF-295) was > 100 µM (inactive). For the same compound, the GI50 (BT-549) was > 100 µM (inactive), the GI50 (K562) was > 100 µM (inactive) and the GI50 (HOP-62) was > 100 µM (inactive). The GI50 (EKVX) was > 100 µM (inactive), the GI50 (MDA-MB-231) was > 100 µM (inactive) and the GI50 (UACC-257) was > 100 µM (inactive). For the same compound, the GI50 (MDA-N) was > 100 µM (inactive), the GI50 (HT-29) was > 100 µM (inactive) and the GI50 (SW-620) was > 100 µM (inactive). For the same compound, the GI50 (KM12) was > 100 µM (inactive), the GI50 (HOP-92) was > 100 µM (inactive) and the GI50 (SK-OV-3) was > 100 µM (inactive). The GI50 (COLO 205) was > 100 µM (inactive), the GI50 (RXF 393) was > 100 µM (inactive) and the GI50 (NCI/ADR-RES) was > 100 µM (inactive). For the same compound, the GI50 (MDA-MB-435) was > 100 µM (inactive), the GI50 (UO-31) was > 100 µM (inactive) and the GI50 (PC-3) was > 100 µM (inactive). The GI50 (A549) was > 100 µM (inactive), the GI50 (Hs-578T) was > 100 µM (inactive) and the GI50 (OVCAR-5) was > 100 µM (inactive). The GI50 (LOX IMVI) was > 100 µM (inactive), the GI50 (HL-60) was 2.04 µM (inactive) and the GI50 (HCT-116) was > 100 µM (inactive).
